According to ChEMBL document CHEMBL5506055, “Hit-to-Lead Optimization of the Natural Product Oridonin as Novel NLRP3 Inflammasome Inhibitors with Potent Anti-Inflammation Activity” (J Med Chem, 2024):
Activity calls are given as the source filed them. The rule behind the calls is not given here.

Key:
[1] = Stability in mouse liver microsomes assessed as half life preincubated for 5 mins with NADPH followed by compound addition and measured upto 120 mins by LC-MS/MS analysis; format: ADME, Microsome; conditions: time < 125 min
[2] = molecular target: NACHT, LRR and PYD domains-containing protein 3 (Mus musculus) (UniProt Q8R4B8); assay: Inhibition of NLRP3 inflammasome activation in LPS/ATP-induced C57BL/6 mouse BMDMs assessed as inhibition of ASC oligomerization by measuring reduction in NLRP3 expression at 50 to 200 nM preincubated with LPS for 4 hrs followed by compound addition for 30 mins and further stimulated with ATP for 30 mins by Western blotting analysis; format: cell-based; conditions: BMDM, dose 50-200 nM, time 1.0 hrs
Chain of NACHT, LRR and PYD domains-containing protein 3 (Mus musculus) (Q8R4B8 whole entry, the tested form may be a part): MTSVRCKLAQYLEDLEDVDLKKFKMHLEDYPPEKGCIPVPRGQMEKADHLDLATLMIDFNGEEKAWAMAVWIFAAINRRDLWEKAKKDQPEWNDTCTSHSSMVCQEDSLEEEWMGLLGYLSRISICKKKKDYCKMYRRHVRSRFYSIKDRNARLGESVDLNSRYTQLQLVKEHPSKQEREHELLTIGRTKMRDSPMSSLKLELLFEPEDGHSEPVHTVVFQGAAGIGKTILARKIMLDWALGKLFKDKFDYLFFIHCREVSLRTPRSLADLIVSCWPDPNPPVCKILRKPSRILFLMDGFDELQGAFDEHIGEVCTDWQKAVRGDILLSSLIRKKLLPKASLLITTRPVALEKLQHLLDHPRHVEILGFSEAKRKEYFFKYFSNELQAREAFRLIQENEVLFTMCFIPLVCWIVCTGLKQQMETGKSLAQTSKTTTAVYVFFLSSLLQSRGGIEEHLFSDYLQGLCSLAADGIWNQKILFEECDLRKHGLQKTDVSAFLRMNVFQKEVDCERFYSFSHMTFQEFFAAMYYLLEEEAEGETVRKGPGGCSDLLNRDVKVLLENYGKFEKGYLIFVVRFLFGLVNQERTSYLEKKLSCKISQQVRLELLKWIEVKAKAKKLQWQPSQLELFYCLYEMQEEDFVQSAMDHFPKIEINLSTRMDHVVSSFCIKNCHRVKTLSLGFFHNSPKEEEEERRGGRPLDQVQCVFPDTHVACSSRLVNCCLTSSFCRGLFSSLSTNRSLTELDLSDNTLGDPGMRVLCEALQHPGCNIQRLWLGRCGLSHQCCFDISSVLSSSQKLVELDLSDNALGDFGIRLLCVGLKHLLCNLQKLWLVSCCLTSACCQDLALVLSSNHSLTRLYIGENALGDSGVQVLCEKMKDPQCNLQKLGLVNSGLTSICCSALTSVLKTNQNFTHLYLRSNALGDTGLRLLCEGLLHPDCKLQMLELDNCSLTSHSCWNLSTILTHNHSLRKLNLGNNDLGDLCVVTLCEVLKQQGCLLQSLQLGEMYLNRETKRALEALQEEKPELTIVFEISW

[3] = Half-life in ICR mouse at 1 mg/kg, iv measured upto 24 hrs by LC-MS/MS method; format: ADME, organism-based; conditions: in vivo
[4] = molecular target: NACHT, LRR and PYD domains-containing protein 3 (Mus musculus) (UniProt Q8R4B8); assay: Inhibition of NLRP3 inflammasome activation in LPS/ATP-induced C57BL/6 mouse BMDMs assessed as inhibition of ASC oligomerization by measuring reduction in cleaved caspase-1 secretion at 50 to 200 nM preincubated with LPS for 4 hrs followed by compound addition for 30 mins and further stimulated with ATP for 30 mins by Western blotting analysis; format: cell-based; conditions: BMDM, dose 50-200 nM, time 1.0 hrs
[5] = molecular target: NACHT, LRR and PYD domains-containing protein 3 (Mus musculus) (UniProt Q8R4B8); assay: Inhibition of NLRP3 inflammasome activation in LPS/ATP-induced C57BL/6 mouse BMDMs assessed as reduction in IL-1beta secretion at 500 nM preincubated with LPS for 4 hrs followed by compound addition for 30 mins and further stimulated with ATP for 30 mins by ELISA relative to control; format: cell-based; conditions: BMDM, time 1.0 hrs
[6] = molecular target: NACHT, LRR and PYD domains-containing protein 3 (Mus musculus) (UniProt Q8R4B8); assay: Inhibition of NLRP3 inflammasome activation in LPS/alum-induced C57BL/6 mouse BMDMs at 200 nM preincubated with LPS for 18 hrs followed by compound addition for 30 mins and further stimulated with alum for 8 hrs by ELISA; format: cell-based; conditions: BMDM, time 8.5 hrs
[7] = Hepatotoxicity in mouse assessed as change in AST/ALT ratio at 100 mg/kg, po or 12.5 to 25 mg/kg, iv; format: toxicity, organism-based; conditions: in vivo
hERG (KCNH2) = hERG (KCNH2) (Homo sapiens, UniProt Q12809); assay: Inhibition of human ERG expressed in CHO cells at 40 uM relative to control; format: toxicity, cell-based; conditions: CHO cells that express human ERG
Chain of hERG (KCNH2) (Q12809 whole entry, the tested form may be a part): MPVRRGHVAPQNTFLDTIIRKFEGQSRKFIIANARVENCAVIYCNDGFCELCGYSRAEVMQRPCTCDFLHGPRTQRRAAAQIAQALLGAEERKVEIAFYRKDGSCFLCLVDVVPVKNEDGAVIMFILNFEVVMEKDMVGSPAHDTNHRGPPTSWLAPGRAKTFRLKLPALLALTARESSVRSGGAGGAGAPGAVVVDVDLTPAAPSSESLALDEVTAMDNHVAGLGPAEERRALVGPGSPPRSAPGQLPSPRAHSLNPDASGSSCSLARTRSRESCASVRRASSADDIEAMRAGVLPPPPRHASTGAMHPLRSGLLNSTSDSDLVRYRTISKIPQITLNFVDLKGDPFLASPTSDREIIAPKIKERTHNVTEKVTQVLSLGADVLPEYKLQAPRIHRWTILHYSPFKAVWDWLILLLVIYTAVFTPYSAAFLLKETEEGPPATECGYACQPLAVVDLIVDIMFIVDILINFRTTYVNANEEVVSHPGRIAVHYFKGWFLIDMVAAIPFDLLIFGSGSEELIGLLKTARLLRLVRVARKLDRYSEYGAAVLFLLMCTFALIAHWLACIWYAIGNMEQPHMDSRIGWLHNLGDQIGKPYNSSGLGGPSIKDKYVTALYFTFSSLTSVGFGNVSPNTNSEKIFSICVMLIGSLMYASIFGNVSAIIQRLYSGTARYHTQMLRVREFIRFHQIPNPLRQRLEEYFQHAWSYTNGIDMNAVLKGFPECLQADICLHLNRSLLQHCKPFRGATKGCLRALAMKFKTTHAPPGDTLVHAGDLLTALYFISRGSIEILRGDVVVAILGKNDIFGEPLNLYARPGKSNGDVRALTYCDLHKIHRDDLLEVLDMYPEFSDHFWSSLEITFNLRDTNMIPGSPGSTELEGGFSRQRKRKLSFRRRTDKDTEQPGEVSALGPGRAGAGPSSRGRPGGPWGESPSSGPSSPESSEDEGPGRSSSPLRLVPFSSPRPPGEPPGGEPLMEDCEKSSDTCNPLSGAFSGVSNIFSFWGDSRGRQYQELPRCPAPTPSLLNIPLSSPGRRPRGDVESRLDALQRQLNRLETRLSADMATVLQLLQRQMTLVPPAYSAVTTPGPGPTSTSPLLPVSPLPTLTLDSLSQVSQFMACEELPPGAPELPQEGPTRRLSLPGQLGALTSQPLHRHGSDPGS

[8] = molecular target: NACHT, LRR and PYD domains-containing protein 3 (Mus musculus, UniProt Q8R4B8); assay: Inhibition of NLRP3 inflammasome activation in LPS/ATP-induced C57BL/6 mouse BMDMs assessed as reduction in IL-1beta secretion preincubated with LPS for 4 hrs followed by compound addition for 30 mins and further stimulated with ATP for 30 mins by ELISA; format: cell-based, BMDM
Chain of NACHT, LRR and PYD domains-containing protein 3 (Q8R4B8 whole entry, the tested form may be a part): as the sequence (Q8R4B8 whole entry, the tested form may be a part) above

[9] = Stability in mouse plasma assessed as half life measured upto 8 hrs; format: ADME, cell-free
[10] = molecular target: NACHT, LRR and PYD domains-containing protein 3 (Mus musculus) (UniProt Q8R4B8); assay: Inhibition of NLRP3 inflammasome activation in LPS/MSU-induced C57BL/6 mouse BMDMs at 200 nM preincubated with LPS for 4 hrs followed by compound addition for 30 mins and further stimulated with MSU for 6 hrs by ELISA; format: cell-based; conditions: BMDM, time 6.5 hrs
[11] = molecular target: NACHT, LRR and PYD domains-containing protein 3 (Mus musculus) (UniProt Q8R4B8); assay: Inhibition of NLRP3 inflammasome activation in LPS-induced C57BL/6 mouse BMDMs assessed as reduction in IL-1beta level preincubated with Pam3CSK4 for 3 hrs followed by compound addition for 30 mins and further LPS transfected with Lipo-3000 for 16 hrs by ELISA; format: cell-based; conditions: BMDM, dose 50-200 nM, time 16.5 hrs
Mus musculus [12] = assay: Antiinflammatory activity in C57BL/6 mouse model of arthritis assessed as reduction in MSU-induced TNFalpha secretion at 12.5 to 25 mg/kg, iv measured upto 24 hrs; format: functional, organism-based; conditions: dose 12.5-25 mg/kg
[13] = Cmax in ICR mouse at 10 mg/kg, po measured upto 24 hrs by LC-MS/MS method; format: ADME, organism-based; conditions: in vivo
BMDM = assay: Inhibition of mitochondrial ROS production in mouse BMDMs at 200 nM preincubated with LPS for 4 hrs followed by compound addition for 30 mins and further stimulated with ATP for 30 mins by confocal microscopic analysis; format: functional, cell-based; conditions: time 1.0 hrs
Mus musculus [14] = assay: Antiinflammatory activity in C57BL/6 mouse model of arthritis assessed as reduction in MSU-induced NLRP3 expression in joints at 12.5 to 25 mg/kg, iv measured upto 24 hrs; format: functional, organism-based; conditions: dose 12.5-25 mg/kg
Mus musculus [15] = assay: Antiinflammatory activity in C57BL/6 mouse model of arthritis assessed as reduction in MSU-induced IL-1beta secretion at 12.5 to 25 mg/kg, iv measured upto 24 hrs; format: functional, organism-based; conditions: dose 12.5-25 mg/kg
[16] = molecular target: NLR family CARD domain-containing protein 4 (Mus musculus) (UniProt Q3UP24); assay: Inhibition of NLRC4 inflammasome activation in LPS/Poly(dA:dT)-induced C57BL/6 mouse BMDMs at 200 nM […] for 4 hrs followed by compound addition for 30 mins and further Poly(dA:dT) transfected with Lipo-3000 for 4 hrs; format: cell-based; conditions: BMDM, time 4.5 hrs
Chain of NLR family CARD domain-containing protein 4 (Mus musculus) (Q3UP24 whole entry, the tested form may be a part): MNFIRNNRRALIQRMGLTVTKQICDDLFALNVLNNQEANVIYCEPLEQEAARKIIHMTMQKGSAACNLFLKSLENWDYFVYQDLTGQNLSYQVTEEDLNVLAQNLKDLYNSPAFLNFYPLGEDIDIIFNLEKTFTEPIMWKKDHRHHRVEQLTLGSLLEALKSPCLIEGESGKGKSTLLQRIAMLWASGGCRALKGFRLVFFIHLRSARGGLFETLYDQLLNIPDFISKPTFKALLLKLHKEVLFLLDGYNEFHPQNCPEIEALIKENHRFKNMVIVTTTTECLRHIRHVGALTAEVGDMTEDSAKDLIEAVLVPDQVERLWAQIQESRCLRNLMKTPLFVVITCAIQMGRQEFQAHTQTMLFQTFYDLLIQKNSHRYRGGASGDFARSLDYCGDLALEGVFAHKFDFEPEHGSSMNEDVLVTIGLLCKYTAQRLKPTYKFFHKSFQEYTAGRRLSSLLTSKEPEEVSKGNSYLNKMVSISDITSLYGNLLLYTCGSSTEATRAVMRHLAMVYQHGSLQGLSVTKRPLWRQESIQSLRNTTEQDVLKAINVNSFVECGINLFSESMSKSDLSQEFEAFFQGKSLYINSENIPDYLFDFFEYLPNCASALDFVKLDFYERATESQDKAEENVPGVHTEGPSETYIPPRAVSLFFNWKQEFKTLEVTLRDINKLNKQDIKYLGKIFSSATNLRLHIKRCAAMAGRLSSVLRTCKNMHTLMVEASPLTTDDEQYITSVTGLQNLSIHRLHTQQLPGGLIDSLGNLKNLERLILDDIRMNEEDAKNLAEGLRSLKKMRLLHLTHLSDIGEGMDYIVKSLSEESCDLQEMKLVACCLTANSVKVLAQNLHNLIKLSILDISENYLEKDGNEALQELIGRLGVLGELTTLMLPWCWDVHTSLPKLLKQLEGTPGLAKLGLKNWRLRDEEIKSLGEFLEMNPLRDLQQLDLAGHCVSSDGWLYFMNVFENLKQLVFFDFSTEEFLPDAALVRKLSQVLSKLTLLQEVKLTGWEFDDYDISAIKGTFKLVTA

[17] = Clearance in ICR mouse at 1 mg/kg, iv measured upto 24 hrs by LC-MS/MS method; format: ADME, organism-based; conditions: in vivo
[18] = molecular target: NACHT, LRR and PYD domains-containing protein 3 (Mus musculus) (UniProt Q8R4B8); assay: Inhibition of NLRP3 inflammasome activation in LPS/ATP-induced C57BL/6 mouse BMDMs assessed as inhibition of ASC oligomerization by measuring reduction in pro-IL-1beta expression at 50 to 200 nM preincubated with LPS for 4 hrs followed by compound addition for 30 mins and further stimulated with ATP for 30 mins by Western blotting analysis; format: cell-based; conditions: BMDM, dose 50-200 nM, time 1.0 hrs
[19] = molecular target: NACHT, LRR and PYD domains-containing protein 3 (Mus musculus) (UniProt Q8R4B8); assay: Inhibition of NLRP3 inflammasome activation in LPS/ATP-induced C57BL/6 mouse BMDMs assessed as inhibition of ASC oligomerization by measuring reduction in IL-1beta secretion at 50 to 200 nM preincubated with LPS for 4 hrs followed by compound addition for 30 mins and further stimulated with ATP for 30 mins by Western blotting analysis; format: cell-based; conditions: BMDM, dose 50-200 nM, time 1.0 hrs
Mus musculus [20] = assay: Antiinflammatory activity in C57BL/6 mouse model of arthritis assessed as reduction in MSU-induced joint swelling at 12.5 to 25 mg/kg, iv measured upto 24 hrs; format: functional, organism-based; conditions: dose 12.5-25 mg/kg
[21] = molecular target: NLRP3-NEK7 (Mus musculus) (UniProt Q8R4B8+Q9ES74); assay: Inhibition of NLRP3/NEK7 protein-protein interaction in LPS/ATP-induced C57BL/6 mouse BMDMs at 200 nM preincubated with LPS for 4 hrs followed by compound addition for 30 mins and further stimulated with ATP for 30 mins by Western blotting analysis; format: cell-based; conditions: BMDM, time 1.0 hrs
Chain of NLRP3-NEK7 (Mus musculus) (Q8R4B8 whole entry, looked up): as the sequence (Q8R4B8 whole entry, the tested form may be a part) above
Chain of NLRP3-NEK7 (Mus musculus) (Q9ES74 whole entry, looked up): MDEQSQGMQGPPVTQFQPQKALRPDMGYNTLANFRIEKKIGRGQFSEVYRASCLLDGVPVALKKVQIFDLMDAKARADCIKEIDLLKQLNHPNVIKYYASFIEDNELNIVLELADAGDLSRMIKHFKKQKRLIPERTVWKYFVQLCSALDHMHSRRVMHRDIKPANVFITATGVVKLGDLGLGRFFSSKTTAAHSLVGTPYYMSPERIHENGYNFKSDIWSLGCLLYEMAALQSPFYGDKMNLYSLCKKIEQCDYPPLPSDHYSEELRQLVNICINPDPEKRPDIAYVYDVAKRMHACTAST

[22] = Half-life in ICR mouse at 10 mg/kg, po measured upto 24 hrs by LC-MS/MS method; format: ADME, organism-based; conditions: in vivo
[23] = molecular target: NACHT, LRR and PYD domains-containing protein 3 (Mus musculus) (UniProt Q8R4B8); assay: Inhibition of NLRP3 inflammasome activation in LPS-induced C57BL/6 mouse BMDMs assessed as reduction in pro-IL-1beta mRNA level at 50 to 200 nM preincubated for 24 hrs followed by LPS addition for 4 hrs by qRT-PCR analysis; format: cell-based; conditions: BMDM, dose 50-200 nM, time 28.0 hrs
[24] = molecular target: NACHT, LRR and PYD domains-containing protein 3 (Mus musculus) (UniProt Q8R4B8); assay: Inhibition of NLRP3 inflammasome activation in LPS/ATP-induced C57BL/6 mouse BMDMs assessed as reduction in pro-IL-1beta production at 50 to 200 nM preincubated with compound prior to LPS addition for 30 mins and further stimulated with ATP for 30 mins by Western blotting analysis; format: cell-based; conditions: BMDM, dose 50-200 nM, time 60.0 min

C=C1C(=O)[C@]23[C@H](O)[C@H]1CC[C@H]2[C@]12C=CCC(C)(C)[C@H]1[C@H](O)[C@@]3(OCCC(=O)O)OC2
half-life [1]: 184 min
inhibition [2]: inactive
half-life [3]: 119 min
inhibition [4]: Active
inhibition [5]: 95.3%
inhibition [6]: Active
Activity [7]: Non-Toxic
inhibition at 40 µM (hERG (KCNH2)): 22%
IC50 [8]: 77.2 nM
half-life [9]: 913 min
inhibition [10]: Active
inhibition [11]: Dose-Dependent Effect
Activity (Mus musculus [12]): Active
Cmax [13]: 279 ng/mL
inhibition (BMDM): inactive
Activity (Mus musculus [14]): inactive
Activity (Mus musculus [15]): Active
inhibition [16]: Active
clearance [17]: 69.1 mL/min/kg
inhibition [18]: inactive
inhibition [19]: Active
Activity (Mus musculus [20]): Active
inhibition [21]: Active
half-life [22]: 96 min
inhibition [23]: inactive
inhibition [24]: Active
